Results reported in patent publication US8232407B2, “Nitrogenous heterocyclic compounds with insecticidal activity, and the preparation and use thereof” (East China University of Science and Technology, priority 2008, dated 2012).

Experiments:
Type in all cases: in vivo
[1] = test system: Pseudaletia separate Walker; experiment: Insecticidal activities to armyworm, leaf dipping and feeding
Method in brief: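 Armyworms (10 per tumbler, 3 replicates) ate fresh maize leaves that had been immersed for 3 seconds in compound solutions of 1.57-500 ppm in acetone, or in aqueous acetone for controls. Kills were scored at 24 h, and mortality was calculated relative to survivors in the control group.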

[2] = test system: Nilaparvata lugens; experiment: Insecticidal activities to plant hopper, spraying method; conditions: for Nilaparvata lugens Mortality (%) 500 ppm: in vivo
Method in brief: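 Spray test: acetone solutions of 500 down to 0.79 ppm, 2 ml per tumbler holding 10 planthoppers introduced 6 h earlier, triplicate, aqueous acetone as control. Mortality at 24 h calculated from survivors relative to control.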

[3] = test system: Plutella xylostella; experiment: Insecticidal activities to diamondback moth, feeding dipped leaves; conditions: for Plutella xylostella Mortality (%) 500 ppm: in vivo
Method in brief: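 Mortality was scored 24 h after larvae of Plutella xylostella (10 per treatment, 3 repeats) fed on cabbage leaves immersed 3 s in test solution and dried at room temperature. It was computed relative to survivors in a water-treated control.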

[4] = test system: Aphis craccivoral; experiment: Insecticidal activities to aphids, immersion method; conditions: for Aphis craccivoral Mortality (%) 500 ppm: in vivo
Method in brief: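 Immersion assay: compound diluted from 10 g/L DMF stock to 500 ppm in 0.2 mL/L Triton X-100, sprout-feeding wingless adults dipped 5 s. Kept at 23° C, three repeats; 24 h mortality calculated relative to surviving Triton-treated controls.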

Row | Structure (SMILES) | Pseudaletia separate Walker Mortality (%) 500 ppm ([1]; in vivo) [%] | Nilaparvata lugens Mortality (%) 500 ppm [2] [%] | Plutella xylostella Mortality (%) 500 ppm [3] [%] | Aphis craccivoral Mortality (%) 500 ppm [4] [%] | Pseudaletia separate Walker Mortality (%) 500 ppm ([1]; 500 ppm, leaf dipping and feeding, counted after 24 hours) [%] | mortality at 500 ppm ([2]; Nilaparvata lugens, 500 ppm, spraying method, counted after 24 hours, read-out: Nilaparvata lugens Mortality (%) 500 ppm) [%] | mortality at 500 ppm ([3]; Plutella xylostella, 500 ppm, feeding dipped leaves, counted after 24 hours, read-out: Plutella xylostella Mortality (%) 500 ppm) [%] | mortality at 500 ppm ([4]; Aphis, 500 ppm, immersion method, read-out: Aphis craccivoral Mortality (%) 500 ppm) [%]
1 | C[N+]1=C(C(=Cc2ccsc2)[N+](=O)[O-])N(Cc2cnc(Cl)s2)CC1.[Cl-] [Compound 281] | 100 | 100 | 100 | 100 |  |  |  | 
2 | O=[N+]([O-])C(=Cc1cc(Cl)cs1)C1=NCCN1Cc1cnc(Cl)s1 [Compound 88] | 100 | 100 | 100 | 100 |  |  |  | 
3 | O=[N+]([O-])C(=Cc1ccoc1)C1=NCCN1Cc1ccccc1 [Compound 104] | 79 | 100 | 81 | 96 |  |  |  | 
4 | C[N+]1=C(C(=Cc2ccco2)[N+](=O)[O-])N(Cc2ccc(Cl)nc2)CC1.[Cl-] [Compound 244] | 100 | 100 | 100 | 100 |  |  |  | 
5 | O=[N+]([O-])C(=Cc1ccc(Br)s1)C1=NCCN1Cc1ccc(Cl)nc1 [Compound 20] | 100 | 100 | 100 | 100 |  |  |  | 
6 | O=[N+]([O-])C(=Cc1ccccn1)C1=NCCN1Cc1ccc(Cl)nc1 [Compound 37] | 57 | 56 | 50 | 34 |  |  |  | 
7 | CC[N+]1=C(C(=Cc2ccc(Cl)s2)[N+](=O)[O-])N(Cc2ccc(Cl)nc2)CC1.[Cl-] [Compound 294] | 100 | 100 | 100 | 100 |  |  |  | 
8 | O=[N+]([O-])C(=Cc1ccccc1)C1=NCCN1Cc1ccc(Cl)nc1 [Compound 44] | 97 | 92 | 100 | 67 |  |  |  | 
9 | Cc1csc(C=C(C2=[N+](C)CCN2Cc2ccc(Cl)nc2)[N+](=O)[O-])c1.[Cl-] [Compound 271] | 100 | 100 | 100 | 100 |  |  |  | 
10 | O=[N+]([O-])C(=Cc1ccc(CO)s1)C1=NCCN1Cc1ccc(Cl)nc1 [Compound 30] | 100 | 100 | 100 | 100 |  |  |  | 
11 | Cc1ccc(C=C(C2=[N+](C)CCN2Cc2ccc(Cl)nc2)[N+](=O)[O-])o1.[Cl-] [Compound 255] | 100 | 100 | 100 | 100 |  |  |  | 
12 | Cc1ccc(C=C(C2=NCCCN2Cc2ccc(Cl)nc2)[N+](=O)[O-])o1 [Compound 57] | 100 | 78 | 100 | 100 |  |  |  | 
13 | CCc1ccc(C=C(C2=NCCN2Cc2cnc(Cl)s2)[N+](=O)[O-])o1 [Compound 81] | 100 | 100 | 100 | 100 |  |  |  | 
14 | O=[N+]([O-])/C(=C/c1ccco1)C1=NCCN1Cc1cnc(Cl)s1 [Compound 68, 1-((2-chlorothiozol-5-yl)methyl)-2-(2-(furan-2-yl)-1-nitrovinyl)-4,5-dihydro-1H-imidazole] |  |  |  |  | 100 | 100 | 100 | 100
15 | C[N+]1=C(C(=Cc2cccs2)[N+](=O)[O-])N(Cc2ccc(Cl)nc2)CC1.[Cl-] [Compound 259] | 100 | 100 | 100 | 100 |  |  |  | 
16 | O=[N+]([O-])C(=Cc1ccc(Br)o1)C1=NCCN1Cc1cnc(Cl)s1 [Compound 72] | 100 | 100 | 100 | 100 |  |  |  | 
17 | C[N+]1=C(C(=Cc2ccc([N+](=O)[O-])o2)[N+](=O)[O-])N(Cc2ccc(Cl)nc2)CC1.[Cl-] [Compound 246] | 100 | 100 | 100 | 100 |  |  |  | 
18 | C[N+]1=C(C(=Cc2ccc(Cl)o2)[N+](=O)[O-])N(Cc2cnc(Cl)s2)CC1.[Cl-] [Compound 278] | 100 | 100 | 100 | 100 |  |  |  | 
19 | N#CC(=Cc1cc(Cl)c(Cl)s1)C1=NCCN1Cc1ccc(Cl)nc1 [Compound 149] | 97 | 100 | 100 | 94 |  |  |  | 
20 | O=[N+]([O-])C(=Cc1cc(Cl)c(Cl)o1)C1=NCCCN1Cc1ccc(Cl)nc1 [Compound 53] | 100 | 100 | 100 | 100 |  |  |  | 
21 | CC(=C(C1=NCCN1Cc1ccc(Cl)nc1)[N+](=O)[O-])c1cc(Cl)cs1 [Compound 120] | 59 | 86 | 68 | 52 |  |  |  | 
22 | O=[N+]([O-])C(=Cc1oc(Br)cc1Br)C1=NCCN1Cc1ccc(Cl)nc1 [Compound 11] | 100 | 100 | 100 | 100 |  |  |  | 
23 | CC[N+]1=C(C(=Cc2ccco2)[N+](=O)[O-])N(Cc2ccc(Cl)nc2)CC1.[Cl-] [Compound 285] | 100 | 100 | 100 | 100 |  |  |  | 
24 | CC(=C(C1=NCCN1Cc1ccc(Cl)nc1)[N+](=O)[O-])c1ccc(Cl)s1 [Compound 118] | 19 | 90 | 23 | 93 |  |  |  | 
25 | Cc1ccc(C=C(C2=NCCN2Cc2ccc(Cl)nc2)[N+](=O)[O-])s1 [Compound 27] | 100 | 100 | 100 | 100 |  |  |  | 
26 | O=[N+]([O-])C(=Cc1cc(Br)co1)C1=NCCN1CC1CCOC1 (centres unmarked) [Compound 97] | 90 | 88 | 86 | 76 |  |  |  | 
